Results taken from patent US8501186B2, “Adjuvant composition for vaccine” (Serum Institute of India, Ltd., priority 2009, dated 2013).

Tested on: normal mice
Experiment: Comparative adjuvant activity on total anti-polysaccharide IgG levels in normal mice (Meningococcal A polysaccharide)
Assay type: in vivo
Details: parenteral, 14 and 28 day; for Total IgG level: IgG day 42, Mean ± SE
Experimental: The present adjuvant and extracts were administered with Meningococcal A polysaccharide on indicated days and IgG levels were estimated on day 42 to assess adjuvant activity.

Row | SMILES | Activity (%) (percent immunomodulatory activity) (0.011 mg/kg) | Total IgG level (0.011 mg/kg) | Activity (%) (percent immunomodulatory activity) (0.0185 mg/kg) | Total IgG level (0.0185 mg/kg)
1 | CC1=C(CO)C(=O)O[C@@H]([C@@H](C)[C@H]2CC[C@H]3[C@@H]4C[C@H]5O[C@]56[C@@H](O)C=CC(=O)[C@]6(C)[C@H]4CC[C@]23C)C1 [Withaferin A] | 38.12% | 397.47 ± 93.71 |  | 
2 | CC1=C(C)C(=O)O[C@@H]([C@](C)(O)[C@H]2CC[C@H]3[C@@H]4[C@@H]5O[C@@H]5[C@@]5(O)CC=CC(=O)[C@]5(C)[C@H]4CC[C@]23C)C1 [Withanolide A] |  |  | 14.62% | 329.84 ± 86.82
